Key:
E. coli MG1655 [1] = assay: Survival assay (CFU) of E. coli MG1655 recA+ / recA− after exposure to Nor; format: cell-based; conditions: wild type background, 3 hours of exposure to Nor 0.1 μg/mL
Procedure: The ability of these fours strains to survive exposure to Nor was then tested. The experiment was performed as follows. Cultures were grown to early log phase in LB at 37° C. with shaking. At the 0 time point Nor was added to the cultures to a final concentration of 0.1 μg/mL. This concentration of Nor is just below the MIC for strain MG1655 under these growth conditions. Samples of the cells were collected and washed in PBS at 0, 30, 90 and 180 min time points. The number of viable cells was determined by plating the cells from each time point on LB agar and counting colonies. The CFU counts were normalized based on the time 0 time point inoculum for each culture (i.e., the CFU count obtained from the 0 time point inoculum was taken to represent 100% survival) and the log % survival was plotted (FIG. 3).
The recA deletion caused a 10,000 fold increase in quinolone sensitivity in a wild type background after 3 hours of exposure to Nor. […] In addition, inhibiting the expression and/or activity of E. coli RecA (or its homolog in other bacteria) is expected to render bacterial strains that have acquired resistance to quinolones (e.g., due to mutation in one or more subunits of the bacterial gyrase or topoisomerase IV and/or due to increased copy number of a gene encoding one of these polypeptides) sensitive once again to these compounds.

[2] = tested on: S. aureus RN4220 and RN4220 recA−; assay: Survival assay in the RN4220 background after exposure to Nor; format: cell-based; conditions: RN4220 recA− vs RN4220, 3 hours of exposure to Nor 0.5 μg/mL
Procedure: The survival ability of RN4220 and RN4220 recA^− following exposure to Nor was then tested as described in Example 2 for E. coli strains. The recA null mutant and parental strains (RN4220 recA^− and RN4220, respectively) were grown to early log phase in LB at 37° C. with shaking. At the 0 time point Nor was added to the cultures to a final concentration of 0.5 μg/mL, which is just below the MIC for wild type cells (RN4220). Samples of the cells were collected and washed in PBS at 0, 30, 90 and 180 minutes time points. The number of viable cells was determined by plating the cells on LB from each time point and counting colonies. The CFU counts were normalized based on the time 0 time point inoculum for each culture (i.e., the CFU count obtained from the 0 time point inoculum was taken to represent 100% survival) and the log % survival was plotted (FIG. 5).
It was concluded that recA is essential for survival in the presence of quinolones (FIG. 5). As in E. coli, recA deletion causes 10,000× increase in quinolone sensitivity compared to the parental strain after 3 hours of exposure to Nor.

[3] = tested on: recA promoter (prec::GFP) in MG1655; assay: Cell-based recA promoter::GFP reporter assay; set-up: species or system E. coli; conditions: recA+ bacteria with reporter construct, in the presence of norfloxacin
Source text: As discussed above, the recA promoter is induced when RecA becomes activated as a result of exposure to DNA damaging agents. The present Applicants hypothesized that exposure to a quinolone may have a similar effect on the recA promoter and that this effect could be exploited to develop a cell-based assay for inhibitors of RecA. A low copy reporter plasmid was used in which the recA promoter controls transcription of the mRNA encoding green fluorescent protein (GFP). The plasmid, referred to herein as prec::GFP, has been previously described (Ronen, 2002). See also Kuang, 2004. prec::GFP contains 2821707-2821893 of the E. coli MG1655 genome (numbering based on the sequenced E. coli genome as reported in Blattner, F. R., et al., Science, 277, pp. 1453-1474, 1997) cloned upstream of a promoterless GFPmut3 gene in a low copy pSC101 origin plasmid as described (Kalir, S., et al., Science, 292, pp. 2080-2083, 2001).
The prec::GFP plasmid was introduced into MG1655 and MG1655 recA null strains and measured the fluorescence emitted by GFP in the presence or absence of quinolone as compared with background fluorescence detected from cultures of MG1655 lacking the plasmid. Briefly cells of these three strains were grown to early log phase in LB at 37° C. with shaking. […] After 60 minutes, fluorescence due to GFP expression from the reporter plasmid was measured using a spectrophotometer.

E. coli MG1655 [4] = assay: Hydroxyl radical formation (HPF dye, flow cytometry) in E. coli; format: cell-based; conditions: E. coli; 250 ng/mL norfloxacin, 5 μg/mL ampicillin, 5 μg/mL kanamycin; bacteriostatic drugs; 3 hours after addition

For `CCn1cc(C(=O)O)c(=O)c2cc(F)c(N3CCNCC3)cc21` [Nor, norfloxacin], the “increase in quinolone sensitivity caused by recA deletion” value (E. coli MG1655 [1]) was 10,000 fold, the “increase in quinolone sensitivity caused by recA deletion compared to parental strain” value [2] was 10,000 × and the “transcription of the recA:GFP reporter gene” value [3] was “increased transcription of the reporter gene”. For the same compound, the hydroxyl radical formation (E. coli MG1655 [4]) was “induce hydroxyl radical formation”.
